Measured values: paper PMC5484485, “In vitro and in vivo effects of kisspeptin antagonists p234, p271, p354, and p356 on GPR54 activation” (PLoS ONE, 2017)
Square brackets hold non-standard residues; d marks the D form. Ends that are not written are not given here.

Tests used:
plasma LH concentration = settings: bitches; anestrus, follicular phase, two stages of luteal phase; cited from earlier work
Excerpt: Sensitivity to exogenous KP10 differs according to the stage of the reproductive cycle, as has been shown in rats, ewes, bitches, and women. In the bitch, the highest KP10-induced LH response was obtained during anestrus and the lowest was during the follicular phase. It is possible that the effects of a KP antagonist also differ among the cycle stages.

human GPR54 = human GPR54 (Homo sapiens, UniProt Q969F8); test: Flow cytometric calcium flux assay, KP10-induced response after 15 min pre-incubation with antagonist; assay type: cell-based; design: host or cells: rat hematopoietic CHEM1 cells expressing endogenous Galpha15; settings: all concentrations 10^-13 to 10^-5 M; 10^-8 M KP10; 15 min pre-incubation; P = 1.00
Experimental: In vitro analyses of the effects of kisspeptin and kisspeptin antagonists, were performed using HT[…] cells (rat hematopoietic CHEM1 cells expressing endogenous Gα15 and, stably expressing the human GPR54 receptor (Millipore BV, the Netherlands), CHEM1-GPR54. Cells were counted and suspended in HBSS+++ at a concentration of 5*10^6 cells/ml. To load the cells with the fluorescent dye ester they were incubated in HBSS+++ adjusted to a concentration of 2 μM Fluo-3 AM (Molecular Probes, Life Technologies, the Netherlands) for 1h at 37°C under agitation in the dark. After incubation, the cells were washed by adding HBSS+++ to a volume of 10 ml followed by centrifugation (5 min, 150 x g) to remove excess of Fluo-3AM. […] Thereafter the tube was removed briefly and 25 μl peptide (see below) was added, after which aspiration and analysis continued. For statistical analyses fluorescent data recorded during the time interval 30-60 seconds after initiation of measurement were used. […] We then assessed whether these antagonists could compete with KP10 for its receptor. […] For this purpose 25 μl quantities of the antagonists were added to 200 μl of Fluo-3 AM labelled cells (10^6 cells/ml) and incubated for 15 min. […] Peptides p354 and p356 were tested three times with both human and canine KP10; while peptides p234 and p271 were tested three times with human KP10 and once with canine KP10. To analyze the effects of different concentrations of the KP antagonists on the calcium response due to KP10 addition, the differences in fluorescence before and after KP10 were calculated (the calcium response). The calcium response ratios were calculated as the calcium response of the CHEM1-GPR54 cells pre-incubated with different concentrations of KP antagonist and the control (the calcium response of the cells without KP antagonist). These calcium response ratios were log transformed and used for further analysis by univariate analysis of variance, with the Dunnett's test as post hoc test. The calcium response ratios were set as dependent variables and the different concentrations of the antagonists and the two types of KP10 were used as fixed factors. The residuals were normally distributed.

circulating LH / puberty = settings: cited from earlier work
Experimental: The development of kisspeptin antagonists contributed to an improved understanding of the role of kisspeptin in the reproductive system. Roseweir et al. developed several KP10 analogues and tested their effect on inositol phosphate (IP) release in Chinese hamster ovarian (CHO) cells stably expressing the human GPR54. […] The kisspeptin antagonists were administered intravenously in a dose of 50 μg/kg/h, and had no effect on either the basal plasma LH concentration during the continuous administration or on the KP10-induced LH response. These findings are in line with a previous study in female dogs. […] Adult male rats received an intrape ...

[1] = adult male rats, 5 nmol ip every hour for three hours

human GPR54, sequence (Q969F8 whole entry): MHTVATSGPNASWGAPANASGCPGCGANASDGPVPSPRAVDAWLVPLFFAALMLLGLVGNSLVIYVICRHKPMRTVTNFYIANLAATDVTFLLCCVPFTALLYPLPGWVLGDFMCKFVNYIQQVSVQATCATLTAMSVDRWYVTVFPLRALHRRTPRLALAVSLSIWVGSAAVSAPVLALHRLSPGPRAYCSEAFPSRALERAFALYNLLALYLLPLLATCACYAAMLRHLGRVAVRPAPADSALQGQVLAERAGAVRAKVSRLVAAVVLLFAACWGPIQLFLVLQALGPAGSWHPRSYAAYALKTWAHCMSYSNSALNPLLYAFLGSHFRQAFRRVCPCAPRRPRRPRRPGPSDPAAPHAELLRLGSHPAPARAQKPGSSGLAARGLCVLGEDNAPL

- difference in calcium response ratio between controls and antagonist (human GPR54): not significant
Substance: RRMKWKKY[dA]NWNGFG[dW]RF-NH2 [p271, p234 with a penetratin tag]
- effect on basal plasma LH concentration, different stages of estrous cycle (plasma LH concentration): did not result in a decrease
- KP10-induced LH response, KP10 intracerebroventricular (circulating LH / puberty; [1]): blunted
- KP10-induced LH response, KP10 intraperitoneal (circulating LH / puberty; [1]): absent
- effect on post-castration rise in circulating LH (circulating LH / puberty; male rats, repeated peripheral administration): could prevent the post-castration rise in circulating LH
- effect on KP10-induced rise in plasma LH (circulating LH / puberty; mice and rats, repeated peripheral administration): blunted the KP10-induced rise in plasma LH concentration
